According to patent publication US9896418B2, “Aryl ethers and uses thereof” (Peloton Therapeutics, Inc., priority 2013, dated 2018):

tested on: HIF-2α HIS TAG-PASB Domain; test: HIF-2α Scintillation Proximity Assay (SPA); format: binding
Experimental: The percent inhibition was determined and IC50 values were calculated using the Dotmatics system based on the following equation: % inhibition=[(high control−sample)/(high control−low control)]×100.

Molecule	IC50
O=[N+]([O-])c1c(Oc2cccc(Cl)c2)ccc(C(F)(F)F)c1Cl [Compound 204, 2-Chloro-4-(3-chlorophenoxy)-3-nitro-1-(trifluoromethyl)benzene 1,3-dichloro-2-nitro-4-(trifluoromethyl)benzene]	210 nM
COC(=O)c1cc(S(=O)(=O)C(F)(F)F)ccc1Oc1cc(F)cc(Cl)c1 [Compound 121, Methyl 2-(3-chloro-5-fluorophenoxy)-5-((trifluoromethyl)sulfonyl)benzoate]	16000 nM
N=S(=O)(c1ccc(Oc2cc(F)cc(Cl)c2)c(Br)c1)C(F)(F)F (stereo not drawn) [Compound 71, 2-bromo-1-(3-chloro-5-fluorophenoxy)-4-((trifluoromethyl)sulfonimidoyl)benzene]	640 nM
N#Cc1cc(F)cc(Oc2ccc(S(=O)(=O)C(F)(F)F)cc2C#N)c1 [Compound 120, 2-(3-Cyano-5-fluorophenoxy)-5-((trifluoromethyl)sulfonyl)benzonitrile]	340 nM
[[(1R,3R)-7-(3-cyano-5-fluoro-phenoxy)-1,2,2-trifluoro-3-hydroxy-indan-4-yl]-methyl-oxo-λ^6-sulfanylidene]cyanamide [Compound 322]	9800 nM
NS(=O)(=O)c1ccc(Oc2cc(F)cc(F)c2)c2c1C(O)CC2 (stereo not drawn) [Compound 257, 7-(3,5-Difluorophenoxy)-3-hydroxy-2,3-dihydro-1H-indene-4-sulfonamide]	1900 nM
N#Cc1c(Oc2cc(F)cc(Cl)c2)ccc(S(=O)(=O)C(F)(F)F)c1Cl [Compound 28, 2-Chloro-6-(3-chloro-5-fluorophenoxy)-3-((trifluoromethyl)sulfonyl)benzonitrile]	49900 nM
N#CN=S(=O)(c1ccc(Oc2cc(F)cc(C#N)c2)c2c1[C@H](O)[C@H](F)C2)C(F)F (stereo partly drawn) [Compound 297, N-(((2R,3S)-7-(3-cyano-5-fluorophenoxy)-2-fluoro-3-hydroxy-2,3-dihydro-1H-inden-4-yl)(difluoromethyl)(oxo)-λ^6-sulfanylidene)cyanamide]	12400 nM
O=S(=O)(c1cc(C(F)(F)F)ccc1Oc1cc(F)cc(Cl)c1)C(F)(F)F [Compound 129, 1-(3-Chloro-5-fluorophenoxy)-4-(trifluoromethyl)-2-((trifluoromethyl)sulfonyl)benzene]	2200 nM
O=S(=O)(c1ccc(Oc2cc(F)cc(Cl)c2)c(Cl)c1Cn1ccnc1)C(F)F [Compound 45, 1-(2-Chloro-3-(3-chloro-5-fluorophenoxy)-6-((difluoromethyl)sulfonyl)benzyl)-1H-imidazole]	6100 nM
CN(C)Cc1c(S(=O)(=O)C(F)F)ccc(Oc2cc(F)cc(Cl)c2)c1C#N [Compound 36, 6-(3-Chloro-5-fluorophenoxy)-3-((difluoromethyl)sulfonyl)-2-((dimethylamino)methyl)benzonitrile]	17000 nM
CS(=O)(=O)c1ccc(Oc2cncc(C#N)c2)c2c1[C@H](O)C(F)(F)C2 [Compound 325, (S)-5-((2,2-Difluoro-1-hydroxy-7-(methylsulfonyl)-2,3-dihydro-1H-inden-4-yl)oxy)nicotinonitrile]	180 nM
O=S(=O)(c1ccc(Oc2ccc3[nH]ncc3c2)c2c1C(O)C(F)(F)C2)C(F)(F)F (stereo not drawn) [Compound 238, 4-((1H-Indazol-5-yl)oxy)-2,2-difluoro-7-((trifluoromethyl)sulfonyl)-2,3-dihydro-1H-inden-1-ol]	4900 nM
O=S(=O)(c1ccc(Oc2cccc3[nH]ncc23)c2c1[C@H](O)C(F)(F)C2)C(F)(F)F [Compound 263, (S)-4-((1H-Indazol-4-yl)oxy)-2,2-difluoro-7-((trifluoromethyl)sulfonyl)-2,3-dihydro-1H-inden-1-ol]	25 nM
C[C@@]1(F)Cc2c(Oc3cc(F)cc(C#N)c3)ccc(S(C)(=O)=O)c2[C@@H]1O [Compound 300]	2030 nM
Cc1c(Oc2cc(F)cc(Cl)c2)ccc(S(=O)(=O)C(F)(F)F)c1Br [Compound 140, 3-Bromo-1-(3-chloro-5-fluoro-phenoxy)-2-methyl-4-(trifluoromethylsulfonyl)benzene]	29 nM
O=S(=O)(c1ccc(Oc2ccc(F)cc2)c2c1[C@H](O)C(F)(F)C2)C(F)(F)F [Example 230, (S)-2,2-Difluoro-4-(4-fluorophenoxy)-7-((trifluoromethyl)sulfonyl)-2,3-dihydro-1H-inden-1-ol]	28 nM
N#Cc1c(Oc2cc(F)cc(Cl)c2)ccc(S(=O)(=O)C(F)(F)F)c1C(=O)O [Compound 105, 3-(3-Chloro-5-fluorophenoxy)-2-cyano-6-((trifluoromethyl)sulfonyl)benzoic acid]	12000 nM
CS(=O)(=NC#N)c1ccc(Oc2cc(F)cc(F)c2)c2c1C(O)CC2 (stereo not drawn) [Compound 189, N-((7-(3,5-Difluorophenoxy)-3-hydroxy-2,3-dihydro-1H-inden-4-yl)(methyl)(oxo)-λ^6-sulfanylidene)cyanamide]	3200 nM
O=S(=O)(c1ccc(Oc2cncc(F)c2)c2c1[C@H](O)C(F)(F)C2)C(F)(F)F [Example 309, (S)-2,2-difluoro-4-((5-fluoropyridin-3-yl)oxy)-7-((trifluoromethyl)sulfonyl)-2,3-dihydro-1H-inden-1-ol]	< 5 nM

Molecule	IC50
Cc1nnc(/C=C/c2c(S(=O)(=O)C(F)(F)F)ccc(Oc3cc(F)cc(C#N)c3)c2C)o1 [Compound 151, 3-Fluoro-5-[2-methyl-3-[(E)-2-(5-methyl-1,3,4-oxadiazol-2-yl)vinyl]-4-(trifluoromethylsulfonyl)phenoxy]benzonitrile]	1100 nM
O=S(=O)(c1ccc(Oc2ccc(F)c(F)c2)c2c1C(O)CC2)C(F)(F)F (stereo not drawn) [Compound 214, 4-(3,4-Difluorophenoxy)-7-((trifluoromethyl)sulfonyl)-2,3-dihydro-1H-inden-1-ol]	230 nM
O=C1c2c(S(=O)(=O)C(F)F)ccc(Oc3cncc(Cl)c3)c2CC1(F)F [Compound 182, 4-((5-Chloropyridin-3-yl)oxy)-7-((difluoromethyl)sulfonyl)-2,2-difluoro-2,3-dihydro-1H-inden-1-one]	380 nM
Cc1cc(Oc2ccc(S(=O)(=O)C(F)F)c3c2CC(F)(F)C3=O)ccc1F [Compound 197, 7-((Difluoromethyl)sulfonyl)-2,2-difluoro-4-(4-fluoro-3-methylphenoxy)-2,3-dihydro-1H-inden-1-one]	770 nM
N#Cc1c(Oc2cc(F)cc(Cl)c2)ccc(S(=O)(=O)C(F)(F)F)c1F [Compound 153, 6-(3-chloro-5-fluorophenoxy)-2-fluoro-3-((trifluoromethyl)sulfonyl)benzonitrile]	230 nM
O=S(=O)(c1ccc(Oc2cc(F)cc(Cl)c2)c(Cl)c1CNC1CCOCC1)C(F)F [Compound 48, N-(2-Chloro-3-(3-chloro-5-fluorophenoxy)-6-((difluoromethyl)sulfonyl)benzyl)tetrahydro-2H-pyran-4-amine]	920 nM
CS(=N)(=O)c1ccc(Oc2cc(F)cc(F)c2)c2c1[C@H](O)C(F)(F)C2 (stereo partly drawn) [Example 192, ((S)-7-(3,5-Difluorophenoxy)-2,2-difluoro-3-hydroxy-2,3-dihydro-1H-inden-4-yl)(imino)(methyl)-λ^6-sulfanone]	180 nM
N#Cc1cncc(Oc2ccc(S(=O)(=O)C(F)(F)F)c3c2C[C@@H](F)[C@H]3O)c1 [Example 225, 5-(((1S,2R)-2-Fluoro-1-hydroxy-7-((trifluoromethyl)sulfonyl)-2,3-dihydro-1H-inden-4-yl)oxy)nicotinonitrile]	< 5 nM
N#Cc1cncc(Oc2ccc(S(=N)(=O)C(F)(F)F)c3c2CC(F)(F)[C@H]3O)c1 (stereo partly drawn) [Example 314, 5-(((1S)-2,2-difluoro-1-hydroxy-7-(S-(trifluoromethyl)sulfonimidoyl)-2,3-dihydro-1H-inden-4-yl)oxy)nicotinonitrile]	25 nM
N#Cc1cc(F)cc(Oc2ccc(S(=O)(=O)C(F)(F)F)c3c2CC(F)C3N)c1 (stereo not drawn) [Compound 268, 3-((1-amino-2-fluoro-7-((trifluoromethyl)sulfonyl)-2,3-dihydro-1H-inden-4-yl)oxy)-5-fluorobenzonitrile]	3500 nM
N#Cc1cc(F)cc(Oc2ccc(S(=O)(=O)C3CCC3)c3c2CCC3O)c1 (stereo not drawn) [Compound 208, 3-((7-(Cyclobutylsulfonyl)-1-hydroxy-2,3-dihydro-1H-inden-4-yl)oxy)-5-fluorobenzonitrile]	> 100000 nM
N#Cc1cc(F)cc(Oc2ccc(S(=N)(=O)CF)c3c2CC(F)(F)[C@H]3O)c1 (single isomer, unassigned) [Example 274]	94 nM
O=S(=O)(c1ccc(Oc2ccc(F)cc2)c2c1C(O)CC2)C(F)(F)F (stereo not drawn) [Compound 212, 4-(4-Fluorophenoxy)-7-((trifluoromethyl)sulfonyl)-2,3-dihydro-1H-inden-1-ol]	670 nM
Cc1c([S+]([O-])C(F)F)ccc(Oc2cc(F)cc(Cl)c2)c1C#N (stereo not drawn) [Compound 37, 6-(3-Chloro-5-fluorophenoxy)-3-((difluoromethyl)sulfinyl)-2-methylbenzonitrile]	6700 nM
CN=S(=O)(c1ccc(Oc2cc(F)cc(Cl)c2)c(Br)c1)C(F)F (stereo not drawn) [Compound 70, N-methyl-2-bromo-1-(3-chloro-5-fluorophenoxy)-4-(S-(difluoromethyl)sulfonimidoyl)benzene]	770 nM
N#Cc1cncc(Oc2ccc(S(=O)(=O)C(F)(F)F)c3c2CCC3O)c1 (stereo not drawn) [Compound 220, 5-((1-Hydroxy-7-((trifluoromethyl)sulfonyl)-2,3-dihydro-1H-inden-4-yl)oxy)nicotinonitrile]	700 nM
N#CN=S(=O)(CF)c1ccc(Oc2cc(F)cc(C#N)c2)c2c1[C@H](O)CC2 (stereo partly drawn) [Compound 282, N—(((R)-7-(3-cyano-5-fluorophenoxy)-3-hydroxy-2,3-dihydro-1H-inden-4-yl)(fluoromethyl)(oxo)-λ^6-sulfanylidene)cyanamide]	7200 nM
CS(=O)(=O)c1ccc(Oc2cncc(C#N)c2)c2c1[C@H](O)C(F)(F)[C@H]2F [Compound 343, 5-(((1S,3S)-2,2,3-trifluoro-1-hydroxy-7-(methylsulfonyl)-2,3-dihydro-1H-inden-4-yl)oxy)nicotinonitrile]	23900 nM
O=S(=O)(c1ccc(Oc2cc(F)cc(F)c2)c2c1CCC2)C(F)F [Compound 20, 4-((Difluoromethyl)sulfonyl)-7-(3,5-difluorophenoxy)-2,3-dihydro-1H-indene]	1100 nM
